In US9822114B2, “Tricyclic oxazolidinone antibiotic compounds” (Idorsia Pharmaceuticals Ltd, priority 2008, dated 2017):
Converted amounts (≈) assume the structure as drawn.

Test system: M. catarrhalis A894
Test: Minimal inhibitory concentration (MIC), microdilution method in cation-adjusted Mueller-Hinton Broth (CLSI M7-A7)
Format: cell-based
Conditions: Moraxella catarrhalis, strain A894
Procedure: Minimal inhibitory concentrations (MICs; mg/1) were determined in cation-adjusted Mueller-Hinton Broth by a microdilution method following the description given in “Methods for Dilution Antimicrobial Susceptibility Tests for Bacteria that Grow Aerobically”, Approved standard, 7th ed., Clinical and Laboratory Standards Institute (CLSI) Document M7-A7, Wayne, Pa., USA, 2006.

Compound | MIC [µg/mL]
O=C1O[C@@H](CCNC2Cn3c(=O)ccc4ccc(F)c2c43)CN1c1ccc2c(c1)OCCO2 (mixture of isomers) [Example 107, (RS)-1-{2-[(S)-3-(2,3-dihydro-benzo[1,4]dioxin-6-yl)-2-oxo-oxazolidin-5-yl]-ethylamino}-9-fluoro-1,2-dihydro-pyrrolo[3,2,1-ij]quinolin-4-one] | 8
CN(C)Cc1ccc2c3c1ccc(=O)n3C[C@@H]2NCCC[C@H]1CN(c2ccc3c(c2)NC(=O)CS3)C(=O)O1 [Example 122, (R)-7-dimethylaminomethyl-1-{3-[(S)-2-oxo-3-(3-oxo-3,4-dihydro-2H-benzo[1,4]thiazin-6-yl)-oxazolidin-5-yl]-propylamino}-1,2-dihydro-pyrrolo[3,2,1-ij]quinolin-4-one] | 0.5 (≈ 0.937 µM)
O=C1COc2ccc(N3C[C@@H](CNCC4Cn5c(=O)ccc6ccc(F)c4c65)OC3=O)cc2N1 (mixture of isomers) [Example 32, (1RS)-9-fluoro-1-({[(R)-2-oxo-3-(3-oxo-3,4-dihydro-2H-benzo[1,4]oxazin-6-yl)-oxazolidin-5-ylmethyl]-amino}-methyl)-1,2-dihydro-pyrrolo[3,2,1-ij]quinolin-4-one] | 0.031
O=C1CSc2ccc(N3C[C@H](CCCN[C@@H]4Cn5c(=O)ccc6cccc4c65)OC3=O)nc2N1 [Example 136, (S)-1-{3-[(S)-2-oxo-3-(3-oxo-3,4-dihydro-2H-pyrido[3,2-b][1,4]thiazin-6-yl)-oxazolidin-5-yl]-propylamino}-1,2-dihydro-pyrrolo[3,2,1-ij]quinolin-4-one] | ≤ 0.031
O=C1CSc2ccc(N3C[C@H](CNCC4Cn5c(=O)ccc6cccc4c65)OC3=O)nc2N1 (mixture of isomers) [Example 175, (RS)-1-({[(S)-2-oxo-3-(3-oxo-3,4-dihydro-2H-pyrido[3,2-b][1,4]thiazin-6-yl)-oxazolidin-5-ylmethyl]-amino}-methyl)-1,2-dihydro-pyrrolo[3,2,1-ij]quinolin-4-one] | ≤ 0.031
O=C1COc2ccc(N3C[C@@H](CNCCC4Cn5c(=O)ccc6ccc(F)c4c65)OC3=O)cc2N1 (mixture of isomers) [Example 9, (1RS)-9-fluoro-1-(2-{[(R)-2-oxo-3-(3-oxo-3,4-dihydro-2H-benzo[1,4]oxazin-6-yl)-oxazolidin-5-ylmethyl]-amino}-ethyl)-1,2-dihydro-pyrrolo[3,2,1-ij]quinolin-4-one] | ≤ 0.031
O=C1COc2ccc(N3C[C@@H](CNCC4Cn5c(=O)ccc6ncc(F)c4c65)OC3=O)cc2N1 (mixture of isomers) [Example 98, (RS)-3-fluoro-4-({[(R)-2-oxo-3-(3-oxo-3,4-dihydro-2H-benzo[1,4]oxazin-6-yl)-oxazolidin-5-ylmethyl]-amino}-methyl)-4,5-dihydro-pyrrolo[3,2,1-de][1,5]naphthyridin-7-one] | 0.25
O=C1CSc2ccc(N3C[C@H](CCNCC4Cn5c(=O)cnc6cccc4c65)OC3=O)cc2N1 (mixture of isomers) [Example 56, (RS)-6-({2-[(S)-2-oxo-3-(3-oxo-3,4-dihydro-2H-benzo[1,4]thiazin-6-yl)-oxazolidin-5-yl]-ethylamino}-methyl)-5,6-dihydro-pyrrolo[1,2,3-de]quinoxalin-3-one] | ≤ 0.031
O=C1COc2ccc(N3C[C@@H](CCCN[C@@H]4Cn5c(=O)ccc6cccc4c65)OC3=O)nc2N1 [Example 74, (S)-1-{3-[(R)-2-oxo-3-(3-oxo-3,4-dihydro-2H-pyrido[3,2-b][1,4]oxazin-6-yl)-oxazolidin-5-yl]-propylamino}-1,2-dihydro-pyrrolo[3,2,1-ij]quinolin-4-one] | ≤ 0.031
O=C1CSc2ccc(N3C[C@@H](CCCN[C@H]4Cn5c(=O)ccc6cccc4c65)OC3=O)cc2N1 [Example 109, (R)-1-{3-[(R)-2-oxo-3-(3-oxo-3,4-dihydro-2H-benzo[1,4]thiazin-6-yl)-oxazolidin-5-yl]-propylamino}-1,2-dihydro-pyrrolo[3,2,1-ij]quinolin-4-one] | ≤ 0.031
O=C1CSc2ccc(N3C[C@@H](CCNC[C@@H]4Cn5c(=O)ccc6nccc4c65)OC3=O)cc2N1 [Example 15, (4R)-4-({2-[(R)-2-oxo-3-(3-oxo-3,4-dihydro-2H-benzo[1,4]thiazin-6-yl)-oxazolidin-5-yl]-ethylamino}-methyl)-4,5-dihydro-pyrrolo[3,2,1-de][1,5]naphthyridin-7-one] | ≤ 0.031

More lines, now with the values ahead:

MIC [µg/mL] | Compound
≤ 0.031 | O=C1COc2ccc(N3C[C@H](CCCN[C@@H]4Cn5c(=O)ccc6ncc(F)c4c65)OC3=O)nc2N1 [Example 151, (S)-3-fluoro-4-{3-[(S)-2-oxo-3-(3-oxo-3,4-dihydro-2H-pyrido[3,2-b][1,4]oxazin-6-yl)-oxazolidin-5-yl]-propylamino}-4,5-dihydro-pyrrolo[3,2,1-de][1,5]naphthyridin-7-one]
≤ 0.031 | O=C1CSc2ccc(N3C[C@@H](CCNCC4Cn5c(=O)ccc6nccc4c65)OC3=O)cc2N1 (mixture of isomers) [Example 34, (RS)-4-({2-[(R)-2-oxo-3-(3-oxo-3,4-dihydro-2H-benzo[1,4]thiazin-6-yl)-oxazolidin-5-yl]-ethylamino}-methyl)-4,5-dihydro-pyrrolo[3,2,1-de][1,5]naphthyridin-7-one]
≤ 0.031 | O=C1O[C@@H](CCNCC2Cn3c(=O)ccc4ccc(F)c2c43)CN1c1ccc2c(c1)OCCO2 (mixture of isomers) [Example 60, (RS)-1-({2-[(S)-3-(2,3-dihydro-benzo[1,4]dioxin-6-yl)-2-oxo-oxazolidin-5-yl]-ethylamino}-methyl)-9-fluoro-1,2-dihydro-pyrrolo[3,2,1-ij]quinolin-4-one]
≤ 0.031 | O=C1COc2ccc(N3C[C@H](CCCN[C@H]4Cn5c(=O)cnc6ccc(F)c4c65)OC3=O)nc2N1 [Example 131, (R)-7-fluoro-6-{3-[(S)-2-oxo-3-(3-oxo-3,4-dihydro-2H-pyrido[3,2-b][1,4]oxazin-6-yl)-oxazolidin-5-yl]-propylamino}-5,6-dihydro-pyrrolo[1,2,3-de]quinoxalin-3-one]
≤ 0.031 | O=C1CSc2ccc(N3C[C@H](CCCNC4Cn5c(=O)ccc6ncc(F)c4c65)OC3=O)cc2N1 (mixture of isomers) [Example 96, (RS)-3-fluoro-4-{3-[(S)-2-oxo-3-(3-oxo-3,4-dihydro-2H-benzo[1,4]thiazin-6-yl)-oxazolidin-5-yl]-propylamino}-4,5-dihydro-pyrrolo[3,2,1-de][1,5]naphthyridin-7-one]
≤ 0.031 | O=C1CSc2ccc(N3C[C@@H](CCCN[C@@H]4Cn5c(=O)ccc6ncc(F)c4c65)OC3=O)nc2N1 [Example 147, (S)-3-fluoro-4-{3-[(R)-2-oxo-3-(3-oxo-3,4-dihydro-2H-pyrido[3,2-b][1,4]thiazin-6-yl)-oxazolidin-5-yl]-propylamino}-4,5-dihydro-pyrrolo[3,2,1-de][1,5]naphthyridin-7-one]
≤ 0.031 | O=C1CSc2ccc(N3C[C@@H](CCCNC4Cn5c(=O)ccc6ccc(F)c4c65)OC3=O)nc2N1 (mixture of isomers) [Example 125, (RS)-9-fluoro-1-{3-[(R)-2-oxo-3-(3-oxo-3,4-dihydro-2H-pyrido[3,2-b][1,4]thiazin-6-yl)-oxazolidin-5-yl]-propylamino}-1,2-dihydro-pyrrolo[3,2,1-ij]quinolin-4-one]
